Data as given in ChEMBL document CHEMBL1140041, “Flavylium salts as in vitro precursors of potent ligands to brain GABA-A receptors” (Bioorg Med Chem Lett, 2008).
The source made the active and inactive calls. The calls are words filed in the database; no cut-off is given here.

Assays:
Assay type in all cases: cell membranes
[1] = Displacement of [3H]flumazenil from GABAA receptor in Wistar rat cortical membrane
Rattus norvegicus = species on record: Rattus norvegicus; assay: Displacement of [3H]flumazenil from GABAA receptor in Wistar rat cortical membrane at 10 uM
[2] = Displacement of [3H]flumazenil from GABAA receptor in Wistar rat cortical membrane preincubated for 24 hrs
[3] = Displacement of [3H]flumazenil from GABAA receptor in Wistar rat cortical membrane preincubated for 15 mins

| Compound | Ki [1] | further results |
| --- | --- | --- |
| Oc1ccc2ccc(-c3ccccc3)[o+]c2c1 | 260 nM |  |
| COc1ccc2[o+]c(-c3ccc(OC)c(OC)c3)ccc2c1 |  | Activity (Rattus norvegicus): inactive |
| COc1ccc2ccc(-c3ccccc3)[o+]c2c1 | 1800 nM |  |
| COc1ccc(C(=O)/C=C/c2cc(OC)ccc2O)cc1 |  | Ki [2]: 28 nM |
| COc1ccc(-c2ccc3ccccc3[o+]2)cc1OC |  | Activity (Rattus norvegicus): inactive |
| Oc1ccc(-c2ccc3ccc(O)cc3[o+]2)cc1 | 280 nM |  |
| Oc1ccc(-c2ccc3cccc(O)c3[o+]2)cc1 |  | Activity (Rattus norvegicus): inactive |
| Oc1ccc(-c2ccc3cc(O)ccc3[o+]2)cc1 | 1500 nM |  |
| Oc1ccc(-c2ccc3ccc(O)c(O)c3[o+]2)cc1 |  | Activity (Rattus norvegicus): inactive |
| COc1ccc2[o+]c(-c3ccccc3)ccc2c1 | 180 nM |  |
| COc1cc(-c2ccc3ccccc3[o+]2)cc(OC)c1OC |  | Activity (Rattus norvegicus): inactive |

Second part, led by results:

| Ki [1] | Compound | further results |
| --- | --- | --- |
| 140 nM | COc1ccc(-c2ccc3cc(Br)ccc3[o+]2)cc1 | Ki [2]: 66 nM; Ki [3]: 66 nM |
| 1200 nM | COc1ccc(-c2ccc3ccc(OC)cc3[o+]2)cc1 |  |
| 7800 nM | COc1ccc(-c2ccc3cc(OC)c(O)cc3[o+]2)cc1 |  |
| 160 nM | COc1ccc2[o+]c(-c3ccc(O)cc3)ccc2c1 |  |
| 480 nM | COc1ccc(-c2ccc3ccccc3[o+]2)cc1 |  |
| 60 nM | COc1ccc(-c2ccc3cc(OC)ccc3[o+]2)cc1 | Ki [2]: 18 nM; Ki [3]: 18 nM |
| 320 nM | COc1ccc(-c2ccc3cc(O)ccc3[o+]2)cc1 |  |
